Measured values: PubChem BioAssay (NCI)
Where “and” joins values, the source holds several entries; their conditions need not be identical. Equal values may be shown once.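 In this assay, cells in 96-well plates receive the compound at five concentrations for 48 hours. Endpoints are linearly interpolated between the surrounding concentrations. Here, GI50 denotes the concentration required for 50% inhibition of growth. TGI: concentration producing complete growth inhibition.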

Key:
Assay in all cases: NCI anticancer screen, dose series, 48 h
[1] = test system: 786-0 renal
[2] = test system: EKVX NSCLC
[3] = test system: HCT-116 colon
[4] = test system: KM12 colon
[5] = test system: NCI-H226 lung
[6] = test system: OVCAR-3 ovarian
[7] = test system: OVCAR-4 ovarian
[8] = test system: SK-MEL-5 melanoma
[9] = test system: SNB-75 CNS
[10] = test system: SW-620 colon

Compound	GI50 [1]	TGI [1]	GI50 [2]	TGI [2]	GI50 [3]	TGI [3]	GI50 [4]	TGI [4]	GI50 [5]	TGI [5]	GI50 [6]	TGI [6]	GI50 [7]	TGI [7]	GI50 [8]	TGI [8]	GI50 [9]	TGI [9]	GI50 [10]	TGI [10]
COc1cc([C@@H]2c3cc4c(cc3[C@H](SC(=N)N)[C@H]3COC(=O)[C@H]23)OCO4)cc(OC)c1OC	0.435 µM	> 100 µM	0.291 µM	> 100 µM	0.197 µM	> 100 µM	0.0944 µM	0.409 µM	0.573 µM	> 100 µM	0.0767 µM	0.35 µM	0.683 µM	> 100 µM	0.201 µM	0.649 µM	0.477 µM	> 100 µM	0.265 µM	> 100 µM
O=[N+]([O-])c1cccnc1S(=O)(=O)c1ccccc1	–	7.09 µM	–	14.5 µM	–	21.6 µM	–	36.3 µM	–	34.7 µM	–	3.84 µM	–	17.1 µM	–	32.6 µM	–	35.9 µM	–	8.38 µM
Nc1nc(Cl)c2ncn(Cc3ccc(C45CC6CC(CC(C6)C4)C5)c(OCc4cc(F)c(F)cc4F)c3)c2n1	1.85 µM	4.93 µM	10.8 µM	67.1 µM	1.03 µM	2.2 µM	2.93 µM	9.13 µM	5.69 µM	21.9 µM	2.09 µM	14.7 µM	6.08 µM	> 100 µM	0.392 µM	2.24 µM	27.5 µM	> 100 µM	2.14 µM	20.5 µM
CN(C)CCCOc1ccc(NC2=C(Cl)C(=O)C(Nc3ccc(OCCCN(C)C)cc3)=C(Cl)C2=O)cc1	1.59 µM	2.98 µM	0.582 µM	1.26 µM	0.183 µM	0.368 µM	0.801 µM	2.25 µM	1.92 µM	3.83 µM	0.187 µM	0.353 µM	0.14 µM	0.27 µM	1.31 µM	2.59 µM	1.78 µM	3.4 µM	0.297 µM	0.809 µM
CCc1c(OC(C)=O)c2c(NC3OC(COC(C)=O)C(OC(C)=O)C(OC(C)=O)C3OC(C)=O)nc(SC)nc2oc1=O (stereo not drawn)	–	> 100 µM	–	> 100 µM	–	> 100 µM	–	> 100 µM	–	> 100 µM	–	> 100 µM	–	> 100 µM	–	> 100 µM	–	> 100 µM	–	> 100 µM
COc1ccccc1/C=C(\NC(=O)c1ccccc1)c1nc2ccc(Cl)cc2[nH]1	–	87.1 µM	–	78.7 µM	–	> 100 µM	–	> 100 µM	–	58 µM	–	49.6 µM	–	> 100 µM	–	33.7 µM	–	70.7 µM	–	> 100 µM
O=C1C2C(C(=O)N1Cc1ccccc1)N(Cc1ccccc1)C(=O)N2Cc1ccccc1 (stereo not drawn)	–	> 100 µM	–	> 100 µM	–	> 100 µM	–	> 100 µM	–	> 100 µM	–	> 100 µM	–	> 100 µM	–	> 100 µM	–	> 100 µM	–	> 100 µM
CC(=O)Nc1cccc(C#Cc2cncnc2Nc2ccc(OCc3cccc(F)c3)c(Cl)c2)c1	7.66 µM	> 25 µM	2.01 µM	> 21.5 µM	9.1 µM	> 25 µM	9.64 µM	> 25 µM	10 µM	> 25 µM	7.53 µM	> 25 µM	7.6 µM	> 25 µM	8.12 µM	> 25 µM	13.2 µM	> 25 µM	17.9 µM	> 25 µM
C[n+]1cn(CC(=O)c2ccccc2)c(C(N)=O)c1N	–	> 100 µM	–	> 100 µM	–	74.1 µM	–	> 100 µM	–	> 100 µM	–	> 100 µM	–	> 100 µM	–	> 100 µM	–	> 100 µM	–	29.4 µM
C/C(=C/CCC(C)[C@@H]1CC[C@]2(C)C3=C(CC[C@@]12C)[C@@]1(C)CCC(=O)C(C)(C)[C@@H]1CC3)C(=O)O (stereo partly drawn)	1.18 µM	2.57 µM	0.705 µM	2.19 µM	0.858 µM	2.3 µM	0.747 µM	2.3 µM	1.46 µM	4.56 µM	1.41 µM	2.79 µM	1.27 µM	3.02 µM	1.07 µM	2.44 µM	1.69 µM	3.22 µM	1.39 µM	3.41 µM
C/C(=N\NC(=S)N1CCC1)c1ccccn1	0.0555 µM	> 52.4 µM	–	48.6 µM	0.00278 µM	52.2 µM	0.0477 µM	46.7 µM	0.0117 µM	3.48 µM	0.00157 µM	–	0.00312 µM	> 56.7 µM	0.00994 µM	2.01 µM	–	> 29.9 µM	0.0367 µM	> 100 µM
C=C1C(=O)O[C@@H]2C[C@@]3(C)[C@H](O)CCC(=C)[C@@H]3C[C@H]12	–	21.6 µM	–	29.7 µM	–	18.5 µM	–	14.4 µM	–	25.7 µM	–	21.4 µM	–	26.7 µM	–	16.8 µM	–	15.2 µM	–	11.7 µM
O=C([O-])c1ccc([I+]c2ccccc2)cc1	–	> 100 µM	–	> 100 µM	–	> 100 µM	–	> 100 µM	–	> 100 µM	–	> 100 µM	–	> 100 µM	–	> 100 µM	–	> 100 µM	–	> 100 µM
O=C(O)c1ccccc1C(=O)c1ccco1	–	> 100 µM	–	> 100 µM	–	> 100 µM	–	> 100 µM	–	> 100 µM	–	> 100 µM	–	> 100 µM	–	> 100 µM	–	> 100 µM	–	> 100 µM
CCc1ccc(Oc2c(-c3ccc(OCc4ccc(Cl)cc4)cc3O)nn(C)c2C(F)(F)F)cc1	1.22 µM	2.87 µM	1.03 µM	2.98 µM	0.259 µM	1.1 µM	0.389 µM	1.61 µM	1.18 µM	3.6 µM	0.334 µM	1.13 µM	0.547 µM	2.33 µM	1.22 µM	2.47 µM	1.34 µM	4.49 µM	0.382 µM	1.76 µM
O=c1c2ccccc2nc(-c2cccc(Cl)c2)n1NC1OC(CO)C(O)C(O)C1O (stereo not drawn)	–	> 100 µM	–	> 100 µM	–	> 100 µM	–	> 100 µM	–	> 100 µM	–	> 100 µM	–	> 100 µM	–	> 100 µM	–	> 100 µM	–	> 100 µM
OCCNc1nc2ccccc2c2[nH]c3ccccc3c12	0.407 µM	1.92 µM	2.14 µM	15.5 µM	0.278 µM	1.68 µM	0.483 µM	4.63 µM	0.839 µM	4.79 µM	0.516 µM	3.47 µM	1.06 µM	4.59 µM	0.979 µM	2.54 µM	1.88 µM	4.2 µM	0.325 µM	2.26 µM
CCCCCCCCCCCCCC(=O)O[C@H]1CC[C@H](NC(=O)[C@H](OC)[C@H](O)[C@@H](O)[C@H](O)/C=C/C(C)C)C(=O)N(C)C1	0.00238 µM	15 µM and 3.18 µM	1.36 µM	15 µM and > 23.8 µM	–	15 µM and 2.46 µM	0.00238 µM	15 µM and 2.96 µM	0.544 µM	–	0.0139 µM	15 µM and > 23.8 µM	0.00391 µM	15 µM and 11.1 µM	0.00347 µM	0.337 µM and 0.0726 µM	0.0217 µM	15 µM and > 23.8 µM	0.00238 µM	15 µM and 5.48 µM
Nc1c(C(=O)Nc2ccccc2)sc2nc3c(cc12)C(=O)CCC3	1.27 µM	> 100 µM	0.627 µM	> 100 µM	0.512 µM	> 100 µM	0.323 µM	> 100 µM	3.91 µM	> 100 µM	0.264 µM	1.22 µM	0.81 µM	> 100 µM	0.249 µM	5.7 µM	0.494 µM	> 88.7 µM	0.333 µM	> 100 µM
CN(C)CCNC(=O)Nc1ccc(N(C)c2ccnc(Nc3ccc(CS(C)(=O)=O)cc3)n2)cc1	> 25 µM	> 25 µM	> 25 µM	> 25 µM	> 25 µM	> 25 µM	9.88 µM	> 25 µM	> 23.7 µM	> 25 µM	> 25 µM	> 25 µM	> 25 µM	> 25 µM	> 25 µM	> 25 µM	> 12.7 µM	> 25 µM	> 25 µM	> 25 µM
CCOC(=O)CNC(=O)c1[nH]cnc1/N=N/N(C)C	–	> 100 µM	–	> 100 µM	–	> 100 µM	–	> 100 µM	–	> 100 µM	–	> 100 µM	–	> 100 µM	–	> 100 µM	–	> 100 µM	–	> 100 µM
Cc1ccc(S(=O)(=O)Nc2ccccc2C(C)(C)C)cc1	–	62.5 µM	–	> 100 µM	–	29.1 µM	–	47.1 µM	–	56.3 µM	–	40 µM	–	> 100 µM	–	29.8 µM	–	> 100 µM	–	> 100 µM
CCCCCCCCCC1CC(=O)OC23CCCC(=O)C12O3 (stereo not drawn)	–	> 100 µM	–	> 100 µM	–	> 100 µM	–	> 100 µM	–	> 100 µM	–	> 100 µM	–	> 100 µM	–	> 100 µM	–	> 100 µM	–	> 100 µM
O=C1C=CC2(O)OCC3C=C4O[C@@H]5OC6(CCCCC6)O[C@@H]5C4[C@@H]2[C@@H]13 (stereo partly drawn)	–	41.2 µM	–	78.7 µM	–	32.1 µM	–	> 100 µM	–	> 100 µM	–	52.2 µM	–	59.9 µM	–	> 100 µM	–	> 100 µM	–	71.4 µM
CC[n+]1c(-c2ccccc2)c2cc(N)ccc2c2ccc(N)cc21	1.37 µM and 1.16 µM and 3.57 µM	13.6 µM and 12.7 µM and 26.1 µM	–	34.2 µM and 42.8 µM and > 100 µM	1.71 µM	12.7 µM and 25.3 µM and 26.6 µM	1.02 µM	4.68 µM and 15 µM and 21.9 µM	0.504 µM and 0.723 µM and 2.65 µM	4.55 µM and 5.64 µM and 13.5 µM	1.61 µM	9.84 µM and 20.4 µM and 15 µM	0.705 µM	3.99 µM and 29.5 µM and 36 µM	0.864 µM	2.14 µM and 2.6 µM	1.29 µM	3.16 µM and 1.14 µM	1.05 µM	16.2 µM and 33.3 µM and 22.2 µM
CCOC(=O)C1=C(C)N(NC(N)=O)C2(N)N(NC(N)=O)C(C)=C(C(=O)OCC)C12C#N (stereo not drawn)	–	> 100 µM	–	> 100 µM	–	> 100 µM	–	> 100 µM	–	> 100 µM	–	> 100 µM	–	> 100 µM	–	> 100 µM	–	> 100 µM	–	> 100 µM
N#CN1CC[C@H](C(=O)Nc2ncc(-c3ccccc3)s2)C1	0.404 µM	2.48 µM	1.43 µM	3.28 µM	0.323 µM	2.18 µM	0.592 µM	2.78 µM	0.693 µM	4.19 µM	0.346 µM	1.44 µM	0.673 µM	5.59 µM	0.829 µM	3.58 µM	0.374 µM	2.69 µM	0.313 µM	14.4 µM
O=C(CCCCN1CCN(CCCCC(=O)Nc2ccccc2C#C/C=C\C#Cc2ccccc2C(F)(F)F)CC1)Nc1ccccc1C#C/C=C\C#Cc1ccccc1C(F)(F)F	9.8 µM	18.3 µM	18 µM	> 50 µM	9.18 µM	17.8 µM	13.2 µM	33 µM	40.7 µM	> 50 µM	10.6 µM	21.8 µM	16.2 µM	49.5 µM	9.26 µM	16.9 µM	10.3 µM	26.9 µM	9.39 µM	18.4 µM
OC1=CN=C(c2ccccc2)Oc2ccccc21	–	> 100 µM	–	> 100 µM	–	> 100 µM	–	> 100 µM	–	97.5 µM	–	> 100 µM	–	> 100 µM	–	> 100 µM	–	> 100 µM	–	> 100 µM
CO[C@H]1C(=O)[C@]2(C)[C@@H](OC)C[C@H]3OC[C@@]3(OC(C)=O)[C@H]2[C@H](OC(=O)c2ccccc2)[C@]2(O)C[C@H](OC(=O)[C@H](O)[C@@H](NC(=O)OC(C)(C)C)c3ccccc3)C(C)=C1C2(C)C	< 0.01 µM	87.3 µM	0.425 µM	> 100 µM	< 0.01 µM	21.2 µM	< 0.01 µM	22.4 µM	2.09 µM	39.7 µM	< 0.01 µM	< 0.01 µM	–	> 77.1 µM	< 0.01 µM	17.3 µM	< 0.01 µM	< 0.01 µM	< 0.01 µM	> 100 µM
